Experimental data as given in patent US11185100B2 (priority 2014, dated 2021).
Structures can show the parent of a compound that is named as a salt.

Assays:
Type in all cases: cell-based, cat
T1R1/T1R3 receptor [1] = biological target: T1, T1R1/T1R3 receptor (Felis catus, UniProt E3UMS2); test: Agonist screening of transmembrane compounds on T1R1/T1R3 in HEK293 cells (Example 8); settings: for T1R1/T1R3 agonist: transmembrane compound tested at 0.01, 0.1 and 1 mM, HEK293 cells expressing T1R1/T1R3, calcium readout
Procedure: (§1) Agonist Screening Method: HEK293 cells that stably express T1R3 and inducibly express T1R1 were exposed to a transmembrane compound. Activation of the T1R1/T1R3 receptor was detected by a change in intracellular calcium levels using a calcium sensitive fluorescent dye and/or a luminescent reporter system. […] A FLIPR® Tetra or a FlexStation® 3 was used for data capture.
Each transmembrane compound was tested at concentrations of 0.01 mM, 0.1 mM, and 1 mM. […] To generate the dose response curves, the transmembrane compound was tested at concentrations of between 0.0001 mM and 1.0 mM in the presence of GMP and Ala.

T1R1/T1R3 receptor [2] = biological target: T1, T1R1/T1R3 receptor; test: PAM screening of transmembrane compounds with GMP and Ala on T1R1/T1R3 in HEK293 cells (Example 8); settings: for T1R1/T1R3 PAM: transmembrane compound at 0.01, 0.1 and 1 mM with GMP + Ala mixtures (T1-T4), PAM if response greater than sum of compound alone and GMP+Ala alone
From the text: as §1, with “PAM” for “Agonist”, “to” for “to a”, “compound alone or in combination with Ala and GMP to activate the umami receptor.” for “compound.”
Dose response curves were generated for each transmembrane compound at concentrations of 0 (buffer only), 0.01, 0.1 and 1 mM, wherein each of the three concentrations of transmembrane compound was tested in combination with 0.03 mM GMP+100 mM Ala (T1); 0.6 mM GMP+10 mM Ala (T2); 0.1 mM GMP+60 mM Ala (T3) and 0.3 mM GMP+60 mM Ala (T4). The T4 mixture was also tested in a 2-fold dilution series (the T4(X) Concentration). In these experiments, the first test concentration was 2× (2 times) the T4 concentration. The subsequent test concentrations were 2-fold dilutions from that (1×, 0.5× etc.). This dilution series was tested with or without the addition of the test compound at a constant 0.3 mM concentration.
Activation of the umami receptor was also determined in the presence of 1 mM GMP+100 mM Ala to generate a “maximum” umami receptor activation level.

T1R1/T1R3 receptor [3] = biological target: T1, T1R1/T1R3 receptor; test: Activation of T1R1/T1R3 receptor by transmembrane compounds and nucleotide derivatives, conducted as in Examples 1, 2 and 5 (Example 7)
From the text: (§2) Methods: HEK293 cells that stably express T1R3 and inducibly express T1R1 were exposed to nucleotide derivatives alone to activate the umami receptor. Activation of the T1R1/T1R3 receptor was detected by a change in intracellular calcium levels using a calcium sensitive fluorescent dye. Cells that express T1R3 but not T1R1 were used as a control. A FLIPR® Tetra or a FlexStation® 3 was used for data capture.
as §2, with “alone or in combination with one or more amino acids and/or one or more nucleotides” for “alone”, “dye and/or a luminescent reporter system.” for “dye.”
as §2, with “transmembrane compounds” for “nucleotide derivatives”, “alone or in combination with one or more amino acids and/or one or more nucleotides” for “alone”
In each experiment, serial dilutions of up to 10 mM of the transmembrane compound were added to the T1R1/T1R3-expressing cells.

SMILES	T1R1/T1R3 agonist (T1R1/T1R3 receptor [1])	T1R1/T1R3 PAM (T1R1/T1R3 receptor [2])	other results
COC(=O)C(NCc1ccccc1)c1ccccc1 (stereo not drawn) [Formula 19, Methyl-2-benzylamino-2-phenylacetate]	Yes	Yes	–
O=C(CN1C(=O)C(=O)N(CCc2cccs2)C1=O)c1ccccc1 [Formula 6, 1-(2-oxo-2-phenylethyl)-3-(2-(thiophen-2-yl)ethyl)imidazolidine-2,4,5-trione]	No	No	–
O=C(CN1C(=O)C(=O)N(Cc2ccccc2)C1=O)c1ccc2c(c1)OCCO2 [Formula 4, 1-benzyl-3-(2-(2,3-dihydrobenzo[b][1,4]dioxin-6-yl)-2-oxoethyl)imidazolidine-2,4,5-trione]	No	No	–
COc1ccc(C(=O)CN2C(=O)C(=O)N(Cc3ccccc3)C2=O)c(OC)c1 [Formula 5, 1-benzyl-3-(2-(2,4-dimethoxyphenyl)-2-oxoethyl)imidazolidine-2,4,5-trione]	No	No	–
COC(=O)[C@@H](Cc1ccccc1)NCc1ccccc1.Cl [Formula 16, N-Benzyl-D-Phenylalanine methyl ester hydrochloride]	Yes	Yes	–
O=C(CN1C(=O)C(=O)N(Cc2ccccc2)C1=O)c1ccc2c(c1)OCCCO2 [1-benzyl-3-(2-(3,4-dihydro-2H-benzo[b][1,4]dioxepin-7-yl)-2-oxoethyl)imidazolidine-2,4,5-trione]	–	–	PAM profile assessment (activation of T1R1/T1R3 in the presence of GMP and Alanine) (T1R1/T1R3 receptor [2]): PAM activity
COc1ccccc1C(=O)CN1C(=O)C(=O)N(Cc2cccs2)C1=O [Formula 10, 1-(2-(2-methoxyphenyl)-2-oxoethyl)-3-(thiophen-2-ylmethyl)imidazolidine-2,4,5-trione]	No	No	–
O=C(CN1C(=O)C(=O)N(CCc2cccs2)C1=O)c1ccc2c(c1)OCO2 [Formula 7, 1-(2-(benzo[d][1,3]dioxol-5-yl)-2-oxoethyl)-3-(2-(thiophen-2-yl)ethyl)imidazolidine-2,4,5-trione]	No	No	–
Cl.N[C@@H](Cc1ccccc1)C(=O)OCc1ccccc1 [L-Phenylalanine benzyl ester hydrochloride]	–	–	agonist profile assessment (activation of T1R1/T1R3 by the compound alone) (T1R1/T1R3 receptor [1]): agonist; PAM profile assessment (activation of T1R1/T1R3 in the presence of GMP and Alanine) (T1R1/T1R3 receptor [2]): PAM activity
O=C1CC(=O)N(Cc2ccccc2)C(=O)N1Cc1ccccc1 [Formula 24, 1,3-dibenzylpyrimidine-2,4,6(1H,3H,5H)-trione]	Yes	No	–
N[C@@H](Cc1ccc(O)cc1)C(=O)OCc1ccccc1 [Formula 21, L-Tyrosine benzyl ester]	No	No	–
O=C(CN1C(=O)C(=O)N(Cc2ccccc2)C1=O)c1ccc(Br)cc1 [Formula 3, 1-benzyl-3-(2-(4-bromophenyl)-2-oxoethyl)imidazolidine-2,4,5-trione]	No	No	–
CCCC(CCC)NC(=O)c1ccc2c(c1)OCO2 [Formula 14, N-(heptan-4-yl)benzo[d][1,3]dioxole-5-carboxamide]	Yes	Yes	–
O=C(CN1C(=O)C(=O)N(Cc2ccccc2)C1=O)c1ccc2c(c1)OCCCO2 [Formula 8, 1-benzyl-3-(2-(3,4-dihydro-2H-benzo[b][1,4]dioxepin-7-yl)-2-oxoethyl)imidazolidine-2,4,5-trione]	No	Weak PAM	–
O=C(CN1C(=O)C(=O)N(Cc2ccccc2)C1=O)c1ccc2c(c1)CCC2 [Formula 2, 1-benzyl-3-(2-(2,3-dihydro-1H-inden-5-yl)-2-oxoethyl)imidazolidine-2,4,5-trione]	No	No	–
Cc1ccc(CNC(Cc2ccccc2)C(=O)O)cc1 (stereo not drawn) [Formula 23, 2-((4-methylbenzyl)amino)-3-phenylpropanoic acid]	No	No	–
O=C(O)[C@H](Cc1ccc(O)cc1)NCc1ccccc1 [Formula 22, N-Benzyl-L-Tyrosine]	No	No	–
COC(=O)[C@H](CC(C)C)NCc1ccccc1.Cl [Formula 18, Benzyl-L-leucine methyl ester hydrochloride]	Yes	Yes	–
COC(=O)[C@H](CC(C)C)NCc1ccccc1.Cl [Benzyl-L-leucine methyl ester hydrochloride]	–	–	agonist profile assessment (activation of T1R1/T1R3 by the compound alone) (T1R1/T1R3 receptor [1]): agonist; PAM profile assessment (activation of T1R1/T1R3 in the presence of GMP and Alanine) (T1R1/T1R3 receptor [2]): PAM activity
O=C1CC(=O)N(Cc2ccccc2)C(=O)N1Cc1ccccc1 [1,3-dibenzylpyrimidine-2,4,6(1H,3H,5H)-trione]	–	–	agonist profile assessment (activation of T1R1/T1R3 by the compound alone) (T1R1/T1R3 receptor [1]): agonist activity; Max resp ΔF/F +Alanine (20 mM) (T1R1/T1R3 receptor [3]): 0.2925 ΔF/F; Thres +Alanine (20 mM) (T1R1/T1R3 receptor [3]): 0.1 mM; Max resp % of Ala +IMP (0.2 mM) (T1R1/T1R3 receptor [3]; +IMP (0.2 mM)): 35.7 % of Ala; Max resp ΔF/F +IMP (0.2 mM) (T1R1/T1R3 receptor [3]; +IMP (0.2 mM)): 0.2775 ΔF/F; Thres +IMP (0.2 mM) (T1R1/T1R3 receptor [3]; +IMP (0.2 mM)): 0.1 mM; Max resp % of IMP +Alanine (20 mM) (T1R1/T1R3 receptor [3]; hek293 cells): 42.7 % of IMP; Activity (T1R1/T1R3 receptor [3]; modulation of T1R1/T1R3): active
O=C1C(=O)N(Cc2ccccc2)C(=S)N1Cc1ccccc1 [Formula 13, 1,3-dibenzyl-2-thioxoimidazolidine-4,5-dione]	No	No	–
N#Cc1cccc(NC(=O)CN2C(=O)C(=O)N(Cc3ccccc3)C2=O)c1 [Formula 9, 2-(3-benzyl-2,4,5-trioxoimidazolidin-1-yl)-N-(3-cyanophenyl)acetamide]	No	No	–
Cl.N[C@@H](Cc1ccccc1)C(=O)OCc1ccccc1 [Formula 20, L-Phenylalanine benzyl ester hydrochloride]	Yes	Yes	–
O=C(CN1C(=O)C(=O)N(CCc2cccs2)C1=O)c1cccc2ccccc12 [Formula 11, 1-(2-(naphthalen-1-yl)-2-oxoethyl)-3-(2-(thiophen-2-yl)ethyl)imidazolidine-2,4,5-trione]	No	No	–
O=C(CN1C(=O)C(=O)N(Cc2ccccc2)C1=O)c1ccccc1 [Formula 1, 1-benzyl-3-(2-oxo-2-phenylethyl)imidazolidine-2,4,5-trione]	No	No	–
COC(=O)[C@@H](Cc1ccccc1)NCc1ccccc1.Cl [N-Benzyl-D-Phenylalanine methyl ester hydrochloride]	–	–	agonist profile assessment (activation of T1R1/T1R3 by the compound alone) (T1R1/T1R3 receptor [1]): agonist; PAM profile assessment (activation of T1R1/T1R3 in the presence of GMP and Alanine) (T1R1/T1R3 receptor [2]): PAM activity
O=C(CN1C(=O)C(=O)N(Cc2ccccc2)C1=O)c1ccc(Cl)s1 [Formula 12, 1-benzyl-3-(2-(5-chlorothiophen-2-yl)-2-oxoethyl)imidazolidine-2,4,5-trione]	No	Weak PAM	–
COC(=O)C(NCc1ccccc1)c1ccccc1 (stereo not drawn) [Methyl-2-benzylamino-2-phenylacetate]	–	–	agonist profile assessment (activation of T1R1/T1R3 by the compound alone) (T1R1/T1R3 receptor [1]): agonist; PAM profile assessment (activation of T1R1/T1R3 in the presence of GMP and Alanine) (T1R1/T1R3 receptor [2]): PAM activity
COC(=O)[C@H](Cc1ccccc1)NCc1ccccc1 [Formula 15, N-Benzyl-L-phenylalanine methyl ester hydrochloride]	Yes	Yes	–
